Results published in ChEMBL document CHEMBL4602659, “β,β-Dimethylacrylshikonin Induces Apoptosis in Melanoma Cell Lines by NOXA Upregulation” (J Nat Prod, 2020).
Calls of active or inactive are those of the source. The calls are words filed in the database; no cut-off is given here.

How the values were obtained:
SBcl2 [1] = assay: Cytotoxicity against human SBcl2 cells harboring NRAS Q61I mutant assessed as reduction in cell viability after 24 hrs by EZ4U reagent based spectrophotometric method; format: functional; details: SBcl2, 24 h
SBcl2 [2] = assay: Induction of apoptosis in human SBcl2 cells assessed as late apoptotic cells at IC50 concentration after 24 hrs by Annexin V/SYTOX Green based flow cytometric analysis (reference value: 22.96%); format: functional
SBcl2 [3] = assay: Induction of apoptosis in human SBcl2 cells assessed as early apoptotic cells at IC50 concentration after 6 hrs by Annexin V/SYTOX Green based flow cytometric analysis (reference value: 3.77%); format: functional
MUGMel2 [4] = assay: Induction of apoptosis in human MUGMel2 cells assessed as effect on BAD protein expression at IC50 concentration after 24 hrs by Western blot analysis; format: functional, cell-based
[5] = Cytotoxicity against human A375-S2 cells assessed as reduction in cell viability after 48 hrs by MTT assay; format: functional, cell-based; details: A375-S2, 48 h
SBcl2 [6] = assay: Induction of apoptosis in human SBcl2 cells assessed as viable cells at IC50 concentration after 24 hrs by Annexin V/SYTOX Green based flow cytometric analysis (reference value: 73.08%); format: functional
MRC5 = assay: Cytotoxicity against human MRC5 cells assessed as reduction in cell viability after 48 hrs by EZ4U reagent based spectrophotometric method; format: functional
MUGMel2 [7] = assay: Induction of apoptosis in human MUGMel2 cells assessed as late apoptotic cells at IC50 concentration after 24 hrs by Annexin V/SYTOX Green based flow cytometric analysis (reference value: 9.64%); format: functional
WM164 [8] = assay: Induction of apoptosis in human WM164 cells assessed as viable cells at IC50 concentration after 6 hrs by Annexin V/SYTOX Green based flow cytometric analysis (reference value: 94.77%); format: functional
SBcl2 [9] = assay: Induction of apoptosis in human SBcl2 cells treated with scrambled si-RNA assessed as up regulation of NOXA protein expression at IC50 concentration after 24 hrs by Western blot analysis; format: functional, cell-based
WM164 [10] = assay: Induction of apoptosis in human WM164 cells treated with scrambled si-RNA assessed as up regulation of NOXA protein expression at IC50 concentration after 24 hrs by Western blot analysis; format: functional, cell-based
WM164 [11] = assay: Induction of apoptosis in human WM164 cells assessed as effect on BAX protein expression at IC50 concentration after 24 hrs by Western blot analysis; format: functional, cell-based
SBcl2 [12] = assay: Antitumour activity against human SBcl2 cells xenografted in NU(NCr)-Foxn1 mouse assessed as increase in necrotic cells at 2 ug/g administered for three consecutive days with 1 day interval for four cycle by hematoxylin and eosin staining based microscopic analysis; format: functional
WM164 [13] = assay: Cytotoxicity against human WM164 cells harboring BRAF V600E mutant assessed as reduction in cell viability after 24 hrs by EZ4U reagent based spectrophotometric method; format: functional; details: WM164, 24 h
SBcl2 [14] = assay: Induction of apoptosis in human SBcl2 cells assessed as increase in caspase -3 activity at IC50 concentration after 24 hrs by Alexa Fluor 647 antibody based flow cytometric analysis; format: functional, cell-based
MUGMel1 [15] = assay: Induction of apoptosis in human MUGMel1 cells assessed as up regulation of NOXA protein expression at IC50 concentration after 24 hrs by Western blot analysis; format: functional, cell-based
WM793 [16] = assay: Induction of apoptosis in human WM793 cells assessed as effect on BAD protein expression at IC50 concentration after 24 hrs by Western blot analysis; format: functional, cell-based
WM164 [17] = assay: Induction of apoptosis in human WM164 cells assessed as up regulation of PMAIP1 at IC50 concentration after 24 hrs by mRNA sequencing method relative to control; format: functional
SBcl2 [18] = assay: Induction of apoptosis in human SBcl2 cells assessed as effect on BAX protein expression at IC50 concentration after 24 hrs by Western blot analysis; format: functional, cell-based
MUGMel1 [19] = assay: Induction of apoptosis in human MUGMel1 cells assessed as necrotic cells at IC50 concentration after 6 hrs by Annexin V/SYTOX Green based flow cytometric analysis (reference value: 0.39%); format: functional
WM164 [20] = assay: Cytotoxicity against human WM164 cells harboring BRAF V600E mutant assessed as reduction in cell viability after 48 hrs by EZ4U reagent based spectrophotometric method; format: functional; details: WM164, 48 h
B16-F0 = assay: Cytotoxicity against mouse B16F0 cells assessed as reduction in cell viability after 48 hrs by MTT assay; format: functional, cell-based; details: B16F0, 48 h
SBcl2 [21] = assay: Induction of apoptosis in human SBcl2 cells assessed as effect on BAD mRNA expression at IC50 concentration after 6 to 24 hrs by RT-qPCR analysis; format: functional, cell-based
MUGMel2 [22] = assay: Induction of apoptosis in human MUGMel2 cells assessed as viable cells at IC50 concentration after 24 hrs by Annexin V/SYTOX Green based flow cytometric analysis (reference value: 85.95%); format: functional
SBcl2 [23] = assay: Induction of apoptosis in human SBcl2 cells assessed as late apoptotic cells at IC50 concentration after 6 hrs by Annexin V/SYTOX Green based flow cytometric analysis (reference value: 14.91%); format: functional
MUGMel2 [24] = assay: Cytotoxicity against human MUGMel2 cells harboring NRAS pQ61K mutant assessed as reduction in cell viability after 72 hrs by EZ4U reagent based spectrophotometric method; format: functional; details: MUGMel2, 72 h
WM164 [25] = assay: Induction of apoptosis in human WM164 cells assessed as effect on BAD mRNA expression at IC50 concentration after 6 to 24 hrs by RT-qPCR analysis; format: functional, cell-based
MUGMel1 [26] = assay: Cytotoxicity against human MUGMel1 cells assessed as reduction in cell viability after 24 hrs by EZ4U reagent based spectrophotometric method; format: functional; details: MUGMel1, 24 h
WM164 [27] = assay: Induction of apoptosis in human WM164 cells assessed as viable cells at IC50 concentration after 24 hrs by Annexin V/SYTOX Green based flow cytometric analysis (reference value: 94.62%); format: functional
WM164 [28] = assay: Cytotoxicity against human WM164 cells harboring BRAF V600E mutant assessed as reduction in cell viability after 72 hrs by EZ4U reagent based spectrophotometric method; format: functional; details: WM164, 72 h
MUGMel2 [29] = assay: Induction of apoptosis in human MUGMel2 cells assessed as increase in caspase -3 activity at IC50 concentration after 24 hrs by Alexa Fluor 647 antibody based flow cytometric analysis; format: functional, cell-based
SBcl2 [30] = assay: Induction of apoptosis in human SBcl2 cells assessed as viable cells at IC50 concentration after 6 hrs by Annexin V/SYTOX Green based flow cytometric analysis (reference value: 80.68%); format: functional
MUGMel2 [31] = assay: Induction of apoptosis in human MUGMel2 cells assessed as effect on BAD mRNA expression at IC50 concentration after 6 to 24 hrs by RT-qPCR analysis; format: functional, cell-based
WM793 [32] = assay: Induction of apoptosis in human WM793 cells assessed as early apoptotic cells at IC50 concentration after 24 hrs by Annexin V/SYTOX Green based flow cytometric analysis (reference value: 2.64%); format: functional
WM793 [33] = assay: Induction of apoptosis in human WM793 cells assessed as necrotic cells at IC50 concentration after 6 hrs by Annexin V/SYTOX Green based flow cytometric analysis (reference value: 0.32%); format: functional

CC(C)=CC[C@@H](OC(=O)C=C(C)C)C1=CC(=O)c2c(O)ccc(O)c2C1=O [DIMETHYLACRYLSHIKONIN]
IC50 (SBcl2 [1]): 1900 nM
Activity (SBcl2 [2]): 77.12%
Activity (SBcl2 [3]): 16.44%
Activity (MUGMel2 [4]): inactive
IC50 [5]: 7.1 µM
Activity (SBcl2 [6]): 8.43%
IC50 (MRC5): Not Active
Activity (MUGMel2 [7]): 43.89%
Activity (WM164 [8]): 88.63%
Activity (SBcl2 [9]): Active
Activity (WM164 [10]): Active
Activity (WM164 [11]): inactive
Activity (SBcl2 [12]): 50%
IC50 (WM164 [13]): 3.8 µM
Activity (SBcl2 [14]): Active
Activity (MUGMel1 [15]): Active
Activity (WM793 [16]): inactive
fold change (FC) (WM164 [17]): 1.6
Activity (SBcl2 [18]): inactive
Activity (MUGMel1 [19]): 0.11%
IC50 (WM164 [20]): 3000 nM
IC50 (B16-F0): 1.2 to 5.1 µM
Activity (SBcl2 [21]): inactive
Activity (MUGMel2 [22]): 45.04%
Activity (SBcl2 [23]): 70.21%
IC50 (MUGMel2 [24]): 1700 nM
Activity (WM164 [25]): inactive
IC50 (MUGMel1 [26]): 1900 nM
Activity (WM164 [27]): 75.03%
IC50 (WM164 [28]): 2400 nM
Activity (MUGMel2 [29]): Active
Activity (SBcl2 [30]): 21.29%
Activity (MUGMel2 [31]): inactive
Activity (WM793 [32]): 13.71%
Activity (WM793 [33]): 0.3%
